Measured values as given in ChEMBL document CHEMBL1151341, “Constituents of Nealchornea yapurenis (Euophorbiaceae)” (J Nat Prod, 1980).
The source made the active and inactive calls. The calls are words filed in the database; no cut-off is given here.

Each compound was assayed on P388 (assay: Antitumor activity against mouse P388 cells xenografted in mouse at 50 to 400 mg/kg).
Format: functional, organism-based
In the case of `COc1cc2ccc(=O)oc2cc1O`, the Activity is reported as “inactive”.
In the case of `CCCCCCCCCCCCCCCCCCCCCCCCCC(=O)O`, the Activity is reported as “inactive”.
In the case of `CC[C@H](CC[C@@H](C)[C@H]1CC[C@H]2[C@@H]3CC=C4C[C@@H](O)CC[C@]4(C)[C@H]3CC[C@]12C)C(C)C`, the Activity is reported as “inactive”.
For `CC[C@H](CC[C@@H](C)[C@H]1CC[C@H]2[C@@H]3CC=C4C[C@@H](O[C@@H]5O[C@H](CO)[C@@H](O)[C@H](O)[C@H]5O)CC[C@]4(C)[C@H]3CC[C@]12C)C(C)C`, the Activity was “inactive”.
